{
  "source": "patent US10481149B2",
  "origin": "cited, not measured here",
  "test_system": "elimination transporters",
  "conditions": "sandwich-cultured rat hepatocytes; cited from earlier work",
  "data": [
    {"smiles": "COc1ccc(Cl)cc1C(=O)NCCc1ccc(S(=O)(=O)NC(=O)NC2CCCCC2)cc1", "note": "[glibenclamide]", "values": [
      {"measurement": "interference with rosuvastatin elimination", "result": 29.3, "unit": "%"}
    ]}
  ]
}
